The source of these data is publication PMC4900891 (Biochemistry, 2016).

In experiment [1] the target is T1, SHP2^WT (Homo sapiens, UniProt Q06124).
T1 sequence (Q06124 1-525): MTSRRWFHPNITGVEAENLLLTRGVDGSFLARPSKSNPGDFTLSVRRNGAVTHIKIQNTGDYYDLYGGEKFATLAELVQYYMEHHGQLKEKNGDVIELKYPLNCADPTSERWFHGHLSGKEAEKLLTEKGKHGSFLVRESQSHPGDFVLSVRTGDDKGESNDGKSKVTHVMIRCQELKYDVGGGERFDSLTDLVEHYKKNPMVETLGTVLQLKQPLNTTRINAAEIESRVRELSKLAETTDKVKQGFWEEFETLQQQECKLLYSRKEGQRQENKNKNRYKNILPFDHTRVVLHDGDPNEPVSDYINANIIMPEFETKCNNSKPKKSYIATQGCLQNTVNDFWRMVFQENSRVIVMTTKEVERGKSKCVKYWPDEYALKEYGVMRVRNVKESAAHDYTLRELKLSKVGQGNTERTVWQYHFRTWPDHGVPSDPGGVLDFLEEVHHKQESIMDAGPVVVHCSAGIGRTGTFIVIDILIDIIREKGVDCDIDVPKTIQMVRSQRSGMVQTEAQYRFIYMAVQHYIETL
In words: Phosphopeptide activation of SHP2. The experiment is classed as biochemical.

For experiment [2], the target named is T2, SHP2^E76Q (Homo sapiens, UniProt Q06124, E76Q).
T2 sequence (Q06124 1-525 E76Q): T1 sequence (Q06124 1-525) with E76Q
The experiment in a line: Phosphopeptide activation of SHP2. The experiment is classed as biochemical.

In experiment [3] the target is T3, SHP2^S502P (Homo sapiens, UniProt Q06124, S502P).
T3 sequence (Q06124 1-525 S502P): T1 sequence (Q06124 1-525) with S502P
The experiment in a line: Phosphopeptide activation of SHP2. The experiment is classed as biochemical.

In experiment [4] the target is T2, SHP2^E76Q. In words: Basal DiFMUP dephosphorylation kinetics, E76Q. The experiment is classed as biochemical. To be noted: substrate DiFMUP, basal (no peptide); 0.05 nM enzyme, Hepes pH 7.2.
The target of experiment [5] is T3, SHP2^S502P. In words: Basal DiFMUP dephosphorylation kinetics, S502P. The experiment is classed as biochemical. To be noted: substrate DiFMUP, basal (no peptide); 0.025 nM enzyme, Hepes pH 7.2.
In experiment [6] the target is T1, SHP2^WT. As to conditions: substrate DiFMUP, basal (no peptide); 2.5 nM enzyme, Hepes pH 7.2.
The next experiment has as its system SHP2^PTP. To be noted: substrate DiFMUP, basal (no peptide); 0.00625 nM enzyme, Hepes pH 7.2.
A further experiment has as its system SHP2 (both SH2 domains). To be noted: cited from earlier work.

Positions count from the first letter of the chain named. Where “and” joins values, the source holds several entries; their conditions need not be identical. Equal values may be shown once. Square brackets hold non-standard residues; d marks the D form. Peptide text beside a SMILES is read from it. pY = N[C@@H](Cc1ccc(OP(=O)(O)O)cc1)C(=O)O

As for `CC[C@H](C)[C@H](NC(=O)[C@H](Cc1ccc(OP(=O)(O)O)cc1)NC(=O)[C@H](CC(N)=O)NC(=O)[C@H](CC(C)C)NC(=O)[C@@H](N)CO)C(=O)N[C@@H](CC(=O)O)C(=O)N[C@@H](CC(C)C)C(=O)N[C@@H](CC(=O)O)C(=O)N[C@@H](CC(C)C)C(=O)N[C@H](C(=O)N[C@@H](CCCCN)C(=O)O)C(C)C` [PY1172] (H-SLN[pY]IDLDLVK-OH), the EC50 (as a rule, the midpoint of the concentration-response curve) on SHP2^WT [1] was 10000 nM; at SHP2^E76Q [2], 350 nM; on SHP2^S502P [3], 830 nM.
Regarding `Cc1cc(=O)oc2c(F)c(OP(=O)(O)O)c(F)cc12` [DiFMUP, 6,8-Difluoro-4-Methylumbelliferyl Phosphate], the kcat/KM (usually the second-order rate constant that governs catalysis at low substrate concentration) on SHP2^E76Q [4] was 71000 M⁻¹ s⁻¹ and 71200 M⁻¹ s⁻¹; on SHP2^S502P [5], 77000 M⁻¹ s⁻¹ and 76500 M⁻¹ s⁻¹; at SHP2^WT [6], 2100 M⁻¹ s⁻¹; in the experiment with SHP2^PTP, 298000 M⁻¹ s⁻¹.
In the case of “SLNY(p)IDLDLVK-dPEG8-LSTY(p)ASINFQK [PY1172-PEG-PY1222]”, the extent of activation result at SHP2^WT [1] (double-phosphorylated peptide, low-micromolar concentrations) is recorded as “complete activation”. The “sensitivity to bisphosphorylated peptide” value at SHP2^E76Q [2] (relative to SHP2^WT) and on SHP2^S502P [3] (relative to SHP2^WT) was “greatest sensitivity” in each case. In addition, in the experiment with SHP2 (both SH2 domains), the “SH2 domain occupancy and activation” value is “occupies both SH2 domains and induces full activation of the phosphatase”.
